Numbers after ± are expanded uncertainties.
Assay: Boiling temperature at pressure P
Conditions: 101.3 kPa; Liquid; Ebulliometric method (Recirculating still)

Compared with `CCOCCO` [2-ethoxyethan-1-ol], `CCCCOC(C)=O` [butyl ethanoate] is lower in “Boiling temperature at pressure P” value: 135.04 ± 0.71 °C for the first, 126.11 ± 0.71 °C for the second.

First: CC(C)OC(C)C [diisopropyl ether]
Second: CC(C)O [propan-2-ol]
The “Boiling temperature at pressure P” value of the first is lower: 68.62 ± 0.71 °C for the first, 82.12 ± 0.71 °C for the second.
